Laboratory results: US11524977B2, “Ultrasound-assisted simulated digestion method of milk protein active peptide and application thereof in health foods” (JIANGSU UNIVERSITY, priority 2017, dated 2022)
“And” between values parts separate entries of the source, which are not always exact repeats. Identical values can stand only once.

How the values were obtained:
[1] = literature report, in words; cited from earlier work
VCAM-1 = settings: synthesized peptide 100 μM
Method: (§1) The peptides were subjected to study the anti-inflammatory activity; the levels of intercellular adhesion molecule (ICAM-1) and vascular cell adhesion molecule (VCAM-1) expressed in EA.hy926 cells were detected by Western blot as inflammatory biomarkers. The EA, hy926 cells with passage number <12 were grown in 48-well plates. The cells reaching 80-90% confluence were treated with various concentrations (2.5 mg/mL of hydrolysates and digests, 0.2 mM and 3.0 mM of synthetic peptides) of the samples for 18 h. Then the cells were stimulated with TNF-α at 10 ng/mL and incubated for an additional 6 h in order to induce inflammation.
(§2) After the treatment period, the culture medium of the EA. hy926 cells was discarded and a boiling Laemmle buffer containing 0.2% TritonX-100 and 50 μM dithiothreitol was added to lysate the cells. The cell lysates were then run on 9% sodium dodecyl sulfate polyacrylamide gel electrophoresis. The gels were transferred onto nitrocellulose membranes, and immunoblotted with anti-ICAM-1/anti-VCAM-1 antibodies. The concentration of antibody to α-tubulin used was 0.4 μg/mL, while that for all other antibodies was 0.1 μg/mL. The protein bands were scanned using Licor Odyssey BioImager (Licor Biosciences, Lincoln, NB, USA) and quantified by densitometry using Image Studio Lite 5.2.

ICAM-1 = settings: synthesized peptide 100 μM
Method: as §1, §2

Substance | antibacterial activity [1] | VCAM-1 (TNF-α) (VCAM-1) | ICAM-1 (%TNF-α) (ICAM-1)
AASDISLLDAQSAPLR [peptide obtained by enzymolysis of β-LG] | strong antibacterial activity |  | 
IPAVFK: peptide obtained by enzymolysis of β-LG (UniProt P02754 94-99, looked up, fragment) | strong antibacterial activity |  | 
Leu-Gln-Tyr [LQY] |  | 33.7 TNF-α and 33.7 ± 6.9 TNF-α | 48.2 %TNF-α and 48.2 ± 6.3 %TNF-α
Phe-Tyr-Gln-Ala [FYQA] |  | 41.3 TNF-α and 41.3 ± 10.6 TNF-α | 56.6 %TNF-α and 56.6 ± 9.0 %TNF-α
VLVLDTDYK [peptide obtained by enzymolysis of β-LG] | strong antibacterial activity |  | 
